The assay concerns CEM cells HIV-1 protection, formazan growth assay. The assay is described as follows: NCI AIDS Antiviral Assay. The conditions noted are these: for IC50: measured here: growth of uninfected CEM cells. The method in brief:
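Human CEM cells, uninfected and HIV-1-infected, exposed to five drug concentrations; growth measured by soluble formazan assay and scored as percent protection from infection, with protecting compounds retested.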

“And” between values parts separate entries of the source, which are not always exact repeats. Equal entries are not always repeated. The source made the active and inactive calls.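 Rule for the calls: active = compounds giving half or more protection of infected cells from virus-caused growth loss, again on retest; inactive = the rest.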

As to `COc1c2ccoc2nc2c(OC)c(OCC(O)C(C)(C)O)ccc12` (stereo unspecified), the EC50 (in general, the concentration at which the effect is half-maximal) was over 513 µM and the IC50 (as a rule, the concentration that inhibits the measured activity by half) is over 513 µM. `O=C1NC(c2cccc(Cl)c2)N2C(=O)NC(c3cccc(Cl)c3)N12` (stereo unspecified): the outcome was inactive. With `CCOc1ccc(NC(=O)/C(=N\NC(C)(C)C)C2C(=O)Nc3ccccc3S2=O)cc1` (stereo unspecified), the EC50 is over 42.7 µM and the IC50 is over 42.7 µM. Regarding `N#Cc1nc(Nc2ccc([N+](=O)[O-])cc2)sc1N`, the EC50 was over 38 µM and the IC50 turned out to be 19.1 µM. In the case of `COc1cc(/C=C2\CCC(C)c3c2nc(N)c(C#N)c3-c2cc(OC)c(OC)c(OC)c2)cc(OC)c1OC` (stereo unspecified), the outcome was inactive. In the case of `CC(C)(C)OC(=O)NC(CCC(=O)OCc1ccccc1)C(=O)NCCCO` (stereo unspecified), the EC50 is over 200 µM and the IC50 is over 200 µM. Consider `O=c1cc(-c2ccc(O)cc2)oc2cc(O)cc(O)c12`, for which the EC50 is over 55 µM and the 50% inhibitory concentration (IC50) is 20.4 µM. The corresponding values for `Cc1ccc(C(=O)/C=C/c2ccc3c(c2)OCO3)cc1` are over 19.5 µM and over 19.5 µM.

Consider `CC(C(=O)O)N(N=O)c1ccccc1` (stereo unspecified), for which the EC50 is over 676 µM and the half-maximal inhibitory concentration (IC50) is over 676 µM. For `Cc1cn(C2CC3C(COCN3O)O2)c(=O)[nH]c1=O` (stereo unspecified), the EC50 is over 200 µM and the 50% inhibitory concentration (IC50) came to 166 µM.

Regarding `O=C(O)c1cc2ccc(Cl)cc2c(O)c1C1=CCCCC1`, the EC50 was over 166 µM and the IC50 was 33.9 µM. For `Cc1ccc(C(=O)O)c(/C=C2\Cc3ccc(C)cc3C2=O)c1`, in that order: over 200 µM and 97.7 µM. Consider `CCOC(CN=c1nc(N(C)C)ss1)OCC`, for which the outcome was inactive. Take `O=C(/C=C\c1ccc(Cl)c(Cl)c1)c1cccs1`: the EC50 was over 200 µM and the IC50 was found to be 10.2 µM.

In the case of `COC(=O)C1(C(=O)OC)N=C(C)OC1/C=C/c1ccccc1` (stereo unspecified), the EC50 was over 200 µM and the IC50 is over 100 µM.

`COc1ccc(-c2c3c(nc4nc(SC)nc(SC)c24)CCCC3)cc1OC`: the EC50 was over 100 µM and the IC50 turned out to be 81.3 µM. The corresponding values for `O=C(Nc1ccc(C2=NCCN2)cc1)c1cc(C(=O)Nc2ccc(C3=NCCN3)cc2)ncn1` are 12.3 µM and 61.7 µM. The corresponding values for `CCOC(=O)CN(c1sc(C)c(CC)c1C(=O)OCC)S(=O)(=O)c1ccc(C)cc1` are over 200 µM and 10.2 µM.

Turning to `CC1NC(C)SC(C)S1` (stereo unspecified), the EC50 is over 200 µM and the IC50 is over 200 µM. With `CSc1nc(N)nc(N)n1`, the EC50 is over 200 µM and the concentration for half-maximal inhibition (IC50) was over 200 µM.

As to `COc1ccc2oc(=O)c3c(c2c1C)OC(C)(C)C=C3`, the EC50 is over 200 µM and the IC50 is over 100 µM. Regarding `Cc1ccc(C)c(NC(=O)CCc2n[nH]c(=S)o2)c1`, the EC50 was over 9.33 µM and the IC50 is over 9.33 µM. For `N#CC(=C1CCN(CCCC(=O)c2ccc(F)cc2)CC1)c1ccccc1`, the EC50 is over 200 µM and the concentration for half-maximal inhibition (IC50) was over 200 µM. Take `Nc1n[n+]([O-])c2cnccc2[n+]1[O-]`: the EC50 is over 200 µM and the IC50 was 70.8 µM.

With `CC12CCC(C/C1=N\NC(N)=O)C2(C)C` (stereo unspecified), the EC50 was over 200 µM and the half-maximal inhibitory concentration (IC50) is over 200 µM. Consider `O=c1[nH]c2cc(O)ccc2c2cc3c(c(O)c12)OCO3`, for which the outcome was inactive. Consider `CCOC(=O)C1C(=O)CN2CCc3c([nH]c4ccccc34)C12` (stereo unspecified), for which the EC50 is over 29.5 µM and the IC50 was over 29.5 µM. On to `Clc1cccc2[nH]c(-c3ccncc3)nc12`, for which the EC50 was over 200 µM and the IC50 was over 200 µM. As to `O=C(CCCl)NNC1=NCCCCN1`, the EC50 is over 200 µM and the IC50 was over 200 µM.

As to `NCCSSc1ccc([N+](=O)[O-])cc1`, the outcome was inactive. As for `Nc1nc2c(ncn2C2OC(CO)(C(F)(F)F)C(O)C2O)c(=O)[nH]1` (stereo unspecified), the EC50 was over 200 µM and the half-inhibitory concentration (IC50) was over 200 µM. Regarding `CCOC(=O)c1ccc(OCc2nc3cc(C(F)(F)F)ccc3nc2-c2ccccc2)cc1`, the EC50 is over 200 µM and the IC50 came out at 87.1 µM. As for `Cc1cc(C)c(N)c(CO)c1`, the EC50 was over 200 µM; the IC50 is > 200 µM and 107 µM.

On to `N#Cc1nc2ccccc2nc1N1CCN(c2ccc([N+](=O)[O-])cc2)CC1`, for which the EC50 is over 200 µM and the IC50 is over 200 µM. Turning to `O=C(O)CCCCCCCCCCCI`, the EC50 is 27.5 µM and the IC50 was found to be 110 µM. Regarding `COc1cccc2c1OC(=O)NC2O` (stereo unspecified), the result was inactive. Take `COc1cc2c[n+](C)c3c(c2cc1OC)Cc1cc2c(cc1-3)OCO2`: the EC50 is over 19.5 µM and the IC50 is over 19.5 µM. For the molecule `OCC1C(O)C(O)[C@@H]2SCCN12` (stereo partly specified), the EC50 was over 200 µM and the IC50 was over 200 µM. `Cc1ccc(NC(=O)c2cc(S(=O)(=O)Nc3nc4ncccc4[nH]3)c(SSc3cc(Cl)c(C(=O)Nc4ccc(C)cc4)cc3S(=O)(=O)Nc3nc4ncccc4[nH]3)cc2Cl)cc1`: the EC50 is over 200 µM and the concentration for half-maximal inhibition (IC50) is over 200 µM. Turning to `Cc1cc(N(CCC#N)CCC#N)ccc1/C=C(\NC(=O)/C=C/c1ccccc1)NC(=O)Nc1ccc(Cl)cc1`, the result was inactive. For `CCOc1ccccc1N1C(=O)C(=O)C(c2nc3ccccc3s2)C(=O)C1=O`, the EC50 is over 18.2 µM and the half-inhibitory concentration (IC50) was over 18.2 µM.

With `CCc1cccc(C)c1NC(=O)C1=C(C)NC(C)=C(C(=O)Nc2c(C)cccc2CC)C1c1ccc([N+](=O)[O-])cc1`, the EC50 was over 12.9 µM and the IC50 is over 12.9 µM.

In the case of `Cc1cc2c(cc1C)[n+](=O)c(C(=O)CC(=O)C(=O)Nc1ccccc1C)c(C)n2[O-]`, the EC50 was over 9.33 µM and the 50% inhibitory concentration (IC50) was over 9.33 µM. Regarding `C=C=C(C)CN(CC)CC`, the EC50 is over 1580 µM and the IC50 is over 1580 µM. On to `Cc1ccccc1NC(=O)/C(=N/NC(=O)CC#N)C1C(=O)N(c2ccccc2)N=C1N` (stereo unspecified), for which the EC50 was over 12.6 µM and the IC50 was over 12.6 µM.

`N=C(OC1CCCCC1)N1CCCC1`: the EC50 is over 200 µM and the half-inhibitory concentration (IC50) is over 200 µM.

For `Cc1cn(C2OCC(CO)C2N=[N+]=[N-])c(=O)[nH]c1=O` (stereo unspecified), the EC50 is over 200 µM and the half-maximal inhibitory concentration (IC50) is over 200 µM. As to `CCOC(=O)c1ccc(C(=O)/C(C(C)=O)=C2\CCCN2C)n1C`, the EC50 is 89.1 µM and the concentration for half-maximal inhibition (IC50) is 174 µM. For `COc1ccc2cc3c4cc(OC)c(OC)cc4ccn3c2c1`, in that order: over 23.4 µM and 22.9 µM. On to `Cc1c2ccccc2nc(CN2CCOCC2)[n+]1[O-]`, for which the EC50 was over 200 µM and the half-maximal inhibitory concentration (IC50) is over 200 µM.

`CCOC(=O)[C@@H]1OC(c2ccccc2)O[C@H]1C(=O)OCC`: the EC50 was over 200 µM and the half-maximal inhibitory concentration (IC50) was over 200 µM. For the molecule `O=C(O)c1cc(=O)c2cc(C(=O)c3cccs3)c(Cl)c(Cl)c2o1`, the EC50 was over 9.55 µM and the IC50 is over 9.55 µM.

Turning to `Cc1nc(C(N)=S)sc1C(=O)CC(=O)C(=O)Nc1cccc(Cl)c1C`, the EC50 is over 170 µM and the IC50 is over 170 µM. `Nc1nc(N)c2cnnn2n1`: the EC50 was over 295 µM and the half-maximal inhibitory concentration (IC50) is over 295 µM. With `CC1=C(O)C(=O)C(C)=C(O)C1=O`, the EC50 was over 513 µM and the IC50 stood at 9.33 µM.

As for `NC(CSCCCO)C(=O)O` (stereo unspecified), the outcome was inactive. Turning to `Nc1nn2cc3c(nc2c1N=Nc1ccccc1)CCC3`, the EC50 was over 200 µM and the half-inhibitory concentration (IC50) was over 200 µM.

As to `Nc1cc(=O)[nH]c(SC2=NC(N)CC(O)C2)n1` (stereo unspecified), the outcome was inactive.

For `C=CCCCC(C#N)(c1ccccc1)N1CCCC1` (stereo unspecified), the outcome was inactive. Turning to `Nc1ccc(/C=C/c2ccnc3ccccc23)cc1`, the EC50 was 19.5 µM and the 50% inhibitory concentration (IC50) is over 200 µM. The corresponding values for `COC1CC(CC2CCC(C)C(C(C)C(=O)O)O2)OC2(OC(C)(C3CCC(C)(C4OC(C5OC(O)(CO)C(C)CC5C)CC4C)O3)CC2C)C1C` (stereo unspecified) are 0.0575 µM and 0.537 µM.

On to `O=P(O)(O)CC1OC(CO)C(O)C1O` (stereo unspecified), for which the EC50 was over 200 µM and the IC50 is over 200 µM. Turning to `Cc1cc(C)c2c(c1)CC1(Cc3c(ccc(C)c3C)C1=O)C2=O` (stereo unspecified), the EC50 was over 100 µM and the concentration for half-maximal inhibition (IC50) was over 100 µM. Turning to `CN(C)C(=S)/N=c1\ss/c(=N\S(=O)(=O)c2ccccc2)n1N(C)C`, the outcome was inactive.

Regarding `CC(C)NCCCCCNc1cccc2cccnc12`, the EC50 was over 200 µM and the IC50 was determined as 28.8 µM. On to `O=C1C=CC(=O)c2c1ccc1c2[nH]c2ccccc21`, for which the result was inactive. Take `CN(C)c1ccc(/C=C(\C#N)c2ccccc2)cc1`: the EC50 is over 5.89 µM.

As to `COC(=O)C(=O)C(C(=O)Nc1cccc(C)c1C)C1Sc2ccccc2NC1=O` (stereo unspecified), the EC50 was over 17.4 µM and the 50% inhibitory concentration (IC50) was found to be 16.6 µM.

Turning to `CC(=O)CC(=O)N(CCN(C(=O)CC(C)=O)c1ccccc1)c1ccccc1`, the EC50 was over 178 µM and the half-maximal inhibitory concentration (IC50) was over 178 µM. `CC(=O)NC(CCCCNC(=O)N(CCCl)N=O)C(=O)NCc1ccccc1` (stereo unspecified): the EC50 is over 603 µM and the IC50 was 132 µM.

For the molecule `COC(=O)c1ccc(/C=C/c2cc(O)ccc2O)cc1`, the EC50 is over 20 µM and the IC50 was 3.09 µM.

Turning to `O=c1c2ccc(Cl)cc2nc2n1OCC2`, the EC50 is over 132 µM and the IC50 is over 132 µM. Regarding `N#C/C(=C\NC(=S)Nc1cc(Cl)ccc1Cl)c1nc2ccccc2s1`, the EC50 was over 100 µM and the half-inhibitory concentration (IC50) was over 100 µM.

Take `CC(=O)Nc1ccc(S(=O)(=O)Nc2ccc([N+](=O)[O-])cc2)cc1`: the EC50 was over 200 µM, the outcome was inactive and the IC50 is over 200 µM. For the molecule `O=S(=O)(C1=CC(S(=O)(=O)c2ccccc2)CN(Cc2ccccc2)C1c1cccc2ccccc12)c1ccccc1` (stereo unspecified), the outcome was inactive. Take `Cn1c(=O)c(-c2ccccc2)c(N=[N+]=[N-])c2ccccc21`: the EC50 was over 200 µM and the IC50 is 135 µM.

With `N#CC(C(=O)/C(=N/NC(=O)c1ccccc1O)C(C#N)c1ccc(Cl)cc1)c1ccc(Cl)cc1` (stereo unspecified), the EC50 was over 40.7 µM and the IC50 came to 22.4 µM.

The values are drawn from PubChem BioAssay AID179 (DTP/NCI, 2004).
